{"source": "patent EP0100673A2", "about": "“A method of enhancing neurofiber regrowth” (THE RESEARCH FOUNDATION OF STATE UNIVERSITY OF NEW YORK, priority 1982, dated 1984)", "format_in_all_cases": "in vivo, rat", "key": {"sciatic nerve [1]": {"tested_on": "sciatic nerve", "test": "Counts of myelinated axons 5.0 mm distal to repair by light microscopy", "settings": "for Counts of Myelinated Axons - 5.0 mm Distal to Repair by Light Microscopy 1.0 X 10^5 µm^2 - of Area: 12 mg/kg in 5% DMSO, bath + i.m. twice weekly; for % Difference Treated vs. Control: myelinated axons distal, light microscopy", "description": "(§1) lwenty raty art anenthetizve with sel rompun (0.5 cc total volume). The right sciatic nerve is exposed and severed with microneuroscissors, and subsequently repaired microsurgically with 6-8 circumferential microsutures using 10-0 nylon. Immediately following surgery the treated animals receive 12 mg/kg Ac leupeptin in 5% DMSO (dimethylsulphoxide) as a bath on their sciatic nerve, 0.25 cc. total volume. Then the treated animals are injected intramuscularly in right hindlimb with 0.25 cc of a solution containing 12 mg/kg Ac leupeptin in 5% DMSO. Control animals receive the same surgical treatment, but the bath and intramuscular injection consist only of the solvent and 5% DMSO.\n(§2) Thereafter, treated animals are injected twice weekly in the operated hindlimb with 12 mg/kg Ac leupeptin in 5% DMSO (0.25 cc total volume) for periods of 1 week, 1 month, two months, three months - and six months. Control animals are injected with 0.25 cc of 5% DMSO twice weekly in the operated hindlimb for the same time period.\n(§3) Two treated and two control animals are assigned to each of the stated time periods.\n(§4) A ten mm. portion of the repaired sciatic nerve is excised from each animal. This is fixed in 3.0% glutaraldehyde in 0.1 M sodium cacodylate, pH 7.3, overnight for electron microscopy. After post-fixation in 1.0% osmium tetroxide, ethanol dehydration and embedding in Polybed 812, both thick (1 micron) and thin (500 A°) transverse sections are cut on a ultramicrotome. Portions of the excised muscles receive similar preparation for electron microscopy.\n(§5) Thick sections of the sciatic nerve are placed on microscope slots stained with toluidine blue and photographed at a constant magnification in the light microscope. Thin sections of both nerve and muscles are placed on 300 mesh copper grid calm, stained with uranyl acetate and lead citrate and photographed using a Hitachi HU-12 electron microscope."}, "sciatic nerve [2]": {"tested_on": "sciatic nerve", "test": "Counts of myelinated axons 5.0 mm proximal to repair by light microscopy", "settings": "for Counts of Myelinated Axons - 5.0mm. Proximal to Repair by Light Microscopy 1.0 X 10^5 µm^2 - of Area: 12 mg/kg in 5% DMSO, bath + i.m. twice weekly; for % Difference: treated vs. control", "description": "as §1, §2, §3, §4, §5"}, "sciatic nerve [3]": {"tested_on": "sciatic nerve", "test": "Counts of myelinated and unmyelinated axons 5.0 mm distal to repair by electron microscopy", "settings": "Electron Microscopy; for #Myelinated Axons / #Unmyelinated Axons: 5.0mm. Distal to Repair, 12 mg/kg in 5% DMSO, bath + i.m. twice weekly", "description": "as §1, §2, §3, §4, §5"}, "[4]": {"tested_on": "muscles of the operated hindlimb", "test": "Wet weight of hindlimb muscles after sciatic nerve severing and microsurgical repair", "settings": "12 mg/kg in 5% DMSO, bath + i.m. twice weekly", "description": "as §1, §2, §3\nAll animals are sacrified by an overdose of pentobarbital, 1.0 cc total volume. The gastro- cnemius, soleus and extensor digitorum longus muscles of the operated hindlimb are execised from origin to insertion, weighed and then frozen in isopentane in liquid nitrogen […]. For light microscopy, cryostat sections are cut, placed on slides and stained with hematoxylin and eosin and/or ATPase histochemistry at pH's of 4.3 and 10.4. Myofiber diameters are determined by photographing hematoxylin and eosin sections at a constant magnification in the light microscope."}}}
{"smiles": "CC(=O)N[C@@H](CC(C)C)C(=O)N[C@@H](CC(C)C)C(=O)N[C@H](C=O)CCCNC(=N)N", "note": "[Ac leupeptin, acetyl-L-leu-L-leu-L-argininal]", "values": [{"measurement": "Counts of Myelinated Axons - 5.0 mm Distal to Repair by Light Microscopy 1.0 X 10^5 µm^2 - of Area", "setting": "sciatic nerve [1]; One Month Treated", "result": "1467 1.0 X 10^5 µm^2 - of Area"}, {"measurement": "Counts of Myelinated Axons - 5.0 mm Distal to Repair by Light Microscopy 1.0 X 10^5 µm^2 - of Area", "setting": "sciatic nerve [1]; One Week Treated", "result": "722 1.0 X 10^5 µm^2 - of Area"}, {"measurement": "Counts of Myelinated Axons - 5.0 mm Distal to Repair by Light Microscopy 1.0 X 10^5 µm^2 - of Area", "setting": "sciatic nerve [1]; Six Month Treated", "result": "1620 1.0 X 10^5 µm^2 - of Area"}, {"measurement": "Counts of Myelinated Axons - 5.0 mm Distal to Repair by Light Microscopy 1.0 X 10^5 µm^2 - of Area", "setting": "sciatic nerve [1]; Three Month Treated", "result": "2808 1.0 X 10^5 µm^2 - of Area"}, {"measurement": "Counts of Myelinated Axons - 5.0 mm Distal to Repair by Light Microscopy 1.0 X 10^5 µm^2 - of Area", "setting": "sciatic nerve [1]; Two Month Treated", "result": "1625 1.0 X 10^5 µm^2 - of Area"}, {"measurement": "% Difference Treated vs. Control", "setting": "sciatic nerve [1]; One Month", "result": "+2%"}, {"measurement": "% Difference Treated vs. Control", "setting": "sciatic nerve [1]; One Week", "result": "+1%"}, {"measurement": "% Difference Treated vs. Control", "setting": "sciatic nerve [1]; Six Month", "result": 0, "unit": "%"}, {"measurement": "% Difference Treated vs. Control", "setting": "sciatic nerve [1]; Three Month", "result": "+1%"}, {"measurement": "% Difference Treated vs. Control", "setting": "sciatic nerve [1]; Two Month", "result": "+12%"}, {"measurement": "Counts of Myelinated Axons - 5.0mm. Proximal to Repair by Light Microscopy 1.0 X 10^5 µm^2 - of Area", "setting": "sciatic nerve [2]; One Month Treated", "result": "1162 1.0 X 10^5 µm^2 - of Area"}, {"measurement": "Counts of Myelinated Axons - 5.0mm. Proximal to Repair by Light Microscopy 1.0 X 10^5 µm^2 - of Area", "setting": "sciatic nerve [2]; One Week Treated", "result": "1089 1.0 X 10^5 µm^2 - of Area"}, {"measurement": "Counts of Myelinated Axons - 5.0mm. Proximal to Repair by Light Microscopy 1.0 X 10^5 µm^2 - of Area", "setting": "sciatic nerve [2]; Six Month Treated", "result": "1748 1.0 X 10^5 µm^2 - of Area"}, {"measurement": "Counts of Myelinated Axons - 5.0mm. Proximal to Repair by Light Microscopy 1.0 X 10^5 µm^2 - of Area", "setting": "sciatic nerve [2]; Three Month Treated", "result": "2200 1.0 X 10^5 µm^2 - of Area"}, {"measurement": "Counts of Myelinated Axons - 5.0mm. Proximal to Repair by Light Microscopy 1.0 X 10^5 µm^2 - of Area", "setting": "sciatic nerve [2]; Two Month Treated", "result": "1111 1.0 X 10^5 µm^2 - of Area"}, {"measurement": "% Difference Treated Vs. Control", "setting": "sciatic nerve [2]; myelinated axons proximal, light microscopy, One Month", "result": "+7%"}, {"measurement": "% Difference Treated vs. Control", "setting": "sciatic nerve [2]; myelinated axons proximal, light microscopy, One Week", "result": "+16%"}, {"measurement": "% Difference Treated vs. Control", "setting": "sciatic nerve [2]; myelinated axons proximal, light microscopy, Six Month", "result": "+30%"}, {"measurement": "% Difference", "setting": "sciatic nerve [2]; myelinated axons proximal, light microscopy, Three Month", "result": "+46%"}, {"measurement": "% Difference", "setting": "sciatic nerve [2]; myelinated axons proximal, light microscopy, Two Month", "result": "+8%"}, {"measurement": "#Myelinated Axons", "setting": "sciatic nerve [3]; One month treated", "result": "1.2 Per 200 μm^2 of Area"}, {"measurement": "#Unmyelinated Axons", "setting": "sciatic nerve [3]; One month treated", "result": "8 Per 200 μm^2 of Area"}, {"measurement": "#Myelinated Axons", "setting": "sciatic nerve [3]; One week treated", "result": "4.25 Per 200 μm^2 of Area"}, {"measurement": "#Unmyelinated Axons", "setting": "sciatic nerve [3]; One week treated", "result": "11.0 Per 200 μm^2 of Area"}, {"measurement": "#Myelinated Axons", "setting": "sciatic nerve [3]; Six Month Treated", "result": "5 Per 200 μm^2 of Area"}, {"measurement": "#Unmyelinated Axons", "setting": "sciatic nerve [3]; Six Month Treated", "result": "8.7 Per 200 μm^2 of Area"}, {"measurement": "#Myelinated Axons", "setting": "sciatic nerve [3]; Three month treated", "result": "9.0 Per 200 μm^2 of Area"}, {"measurement": "#Unmyelinated Axons", "setting": "sciatic nerve [3]; Three month treated", "result": "12.9 Per 200 μm^2 of Area"}, {"measurement": "#Myelinated Axons", "setting": "sciatic nerve [3]; Two Month Treated", "result": "6 Per 200 μm^2 of Area"}, {"measurement": "#Unmyelinated Axons", "setting": "sciatic nerve [3]; Two Month Treated", "result": "18 Per 200 μm^2 of Area"}, {"measurement": "% Difference Treated vs. Control", "setting": "sciatic nerve [3]; #Myelinated Axons distal, One month", "result": 25, "unit": "%"}, {"measurement": "% Difference Treated vs. Control", "setting": "sciatic nerve [3]; #Myelinated Axons distal, One week", "result": 53, "unit": "%"}, {"measurement": "% Difference Treated vs. Control", "setting": "sciatic nerve [3]; #Myelinated Axons distal, Six Month", "result": 1, "unit": "%"}, {"measurement": "% Difference Treated vs. Control", "setting": "sciatic nerve [3]; #Myelinated Axons distal, Three month", "result": 58, "unit": "%"}, {"measurement": "% Difference Treated vs. Control", "setting": "sciatic nerve [3]; #Myelinated Axons distal, Two Month", "result": 0, "unit": "%"}, {"measurement": "% Difference Treated vs. Control", "setting": "sciatic nerve [3]; #Unmyelinated Axons distal, One month", "result": 70, "unit": "%"}, {"measurement": "% Difference Treated vs. Control", "setting": "sciatic nerve [3]; #Unmyelinated Axons distal, One week", "result": ">100", "unit": "%"}, {"measurement": "% Difference Treated vs. Control", "setting": "sciatic nerve [3]; #Unmyelinated Axons distal, Six Month", "result": "+30%"}, {"measurement": "% Difference Treated vs. Control", "setting": "sciatic nerve [3]; #Unmyelinated Axons distal, Three month", "result": 61, "unit": "%"}, {"measurement": "% Difference Treated vs. Control", "setting": "sciatic nerve [3]; #Unmyelinated Axons distal, Two Month", "result": 50, "unit": "%"}, {"measurement": "Average Wet Weight (g) of Muscles", "setting": "[4]; One Month Treated, E.D.L.", "result": 0.198, "unit": "g"}, {"measurement": "Average Wet Weight (g) of Muscles", "setting": "[4]; One Month Treated, GASTROCNEMIUS", "result": ".954 g"}, {"measurement": "Average Wet Weight (g) of Muscles", "setting": "[4]; One Month Treated, SOLEUS", "result": ".379 g"}, {"measurement": "Average Wet Weight (g) of Muscles", "setting": "[4]; One Week Treated, E.D.L.", "result": 0.116, "unit": "g"}, {"measurement": "Average Wet Weight (g) of Muscles", "setting": "[4]; One Week Treated, GASTROCNEMIUS", "result": 2.379, "unit": "g"}, {"measurement": "Average Wet Weight (g) of Muscles", "setting": "[4]; One Week Treated, SOLEUS", "result": 0.335, "unit": "g"}, {"measurement": "Average Wet Weight (g) of Muscles", "setting": "[4]; Six Month Treated, E.D.L.", "result": 0.163, "unit": "g"}, {"measurement": "Average Wet Weight (g) of Muscles", "setting": "[4]; Six Month Treated, GASTROCNEMIUS", "result": 1.577, "unit": "g"}, {"measurement": "Average Wet Weight (g) of Muscles", "setting": "[4]; Six Month Treated, SOLEUS", "result": 0.306, "unit": "g"}, {"measurement": "Average Wet Weight (g) of Muscles", "setting": "[4]; Three Month Treated, E.D.L.", "result": 0.178, "unit": "g"}, {"measurement": "Average Wet Weight (g) of Muscles", "setting": "[4]; Three Month Treated, GASTROCNEMIUS", "result": 1.563, "unit": "g"}]}
